# Measured values published in ChEMBL document CHEMBL1201862, “PubChem BioAssay data set” (2004).
# Activity calls are given as the source filed them.
# How the values were obtained:
# CAAX prenyl protease 1 = CAAX prenyl protease 1 (Saccharomyces cerevisiae S288c, UniProt P47154); test: yeast CAAX protease Ste24 inhibition – biochemical, S. cerevisiae, plate reader, cherry-pick, dose response (AID 488815)
# [1] = HepG2 cell cytotoxicity, dose response, cytotoxicity control for non-replicating M. tuberculosis project (AID 489018); assay type: functional; details: Mycobacterium tuberculosis
# [2] = NIH3T3 cell viability loss – ATP luminescence, mouse fibroblasts, counter-screen, dose response (AID 2010); assay type: functional, cell-based;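 note: cells exposed to compound for about 90 hours before reading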
# [3] = Vero E6 cell cytotoxicity, dose response, cytotoxicity control for non-replicating M. tuberculosis project, secondary assay (AID 492998); assay type: functional, VeroE6; details: Vero C1008
# [4] = Trypanosoma cruzi growth suppression in host cells – NIH3T3 host cells, beta-gal luminescence, confirmation (AID 2044); assay type: functional, cell-based;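 note: intracellular parasites grown in NIH/3T3 mouse fibroblasts as host cells; luminescent beta-galactosidase reporter signal from transgenic T. cruzi replicating inside host cells; inhibitors lower the luminescence signal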
# cells = assay type: functional
# [5] = THP-1 cell cytotoxicity, dose response, cytotoxicity control for non-replicating M. tuberculosis project (AID 489025); assay type: functional
# [6] = target: Induced myeloid leukemia cell differentiation protein Mcl-1 (Homo sapiens, UniProt Q07820); assay type: functional
# [7] = viability of HCT116 lacking mutant beta-catenin – cell-based, human colon tumor, dose response (AID 1045); assay type: functional;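 note: HCT116 colon tumor cells with beta catenin knocked out; cells exposed to compound for 60 hours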
# [8] = target: T1, E3 ubiquitin-protein ligase XIAP (Homo sapiens, UniProt P98170); test: small molecules displacing peptide from XIAP – biochemical, IAP family, fluorescence polarization (AID 1018); assay type: functional
# [9] = target: T1, E3 ubiquitin-protein ligase XIAP; test: Counter Screen using XIAP-Bir3 for Chemical Antagonists of Bir1/2 domains of IAP-family anti-apoptotic proteins. [Related pubchem assays (depositor defined):AID1018, AID1449, AID1514, AID1638, AID1749, AID1750, AID488957, AID488963]
# [10] = viability of PTEN-deleted HCT116 cells – cell-based, HCT116 PTEN knockout, dose response (AID 1047); assay type: functional;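 note: HCT116 colon tumor cells with PTEN knocked out; cells exposed to compound for 60 hours before readout; potency for loss of cell viability measured by luminescence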
# [11] = target: Heat shock protein HSP 90-alpha (Homo sapiens, UniProt P07900); assay type: functional, organism-based
# Beta-galactosidase = Beta-galactosidase (Escherichia coli, UniProt Q8VNN2); test: detection-enzyme interference by beta-gal modulators – biochemical, E. coli enzyme, set 3, artefact control for CCR6 antagonist project, dose response (AID 504712); assay type: functional
# [12] = target: DNA dC->dU-editing enzyme APOBEC-3G (Homo sapiens, UniProt Q9HC16); test: Dose Response confirmation of small molecule APOBEC3G DNA Deaminase Inhibitors via a fluorescence-based single-stranded DNA deaminase assay. [Related pubchem assays (depositor defined):AID493012, AID493028]; assay type: functional
# [13] = EF1alpha-driven Renilla reporter with control 3'UTR suppression – Clone20-Shn3RL cells, dual-Glo, cherry-pick, set 2, counter-screen for Shn3 3'UTR targeting project, dose response (AID 720724); assay type: functional, cell-based; details: Dual-Go Shn3RL
# [14] = non-specific 3'UTR reporter inhibition in Clone20-Shn3RL – cell-based, Renilla luciferase, cherry-picked, counter-screen for Shn3 inhibitor project, dose response (AID 624133); assay type: functional
# [15] = target: Glucose-6-phosphate 1-dehydrogenase (Homo sapiens, UniProt P11413); test: inhibition of Homo sapiens G6PD, dose series – biochemical, fluorescence, selectivity assay for P. falciparum G6PD inhibitor project, dose response (AID 504792); assay type: functional
# [16] = reduction of Shn3 3'UTR-driven luciferase in osteoblasts – cell-based, Clone20 osteoblasts, firefly luciferase, cherry-picked, dose response (AID 624132); assay type: functional;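 note: firefly luciferase luminescence from reporter carrying the Shn3 3'UTR in osteoblasts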
# [17] = Shn3 3'UTR reporter signal decrease – cell-based, Clone20 osteoblasts, firefly luciferase, cherry-pick, set 2, Schnurri-3 inhibitor project, dose response (AID 720490); assay type: functional;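 note: actives lower the luminescence signal as inhibitors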
# [18] = loss of viability in HepG2 cells – cell-based, CellTiter-Glo, cherry-picked, cytotoxicity control for Shn3 inhibitor project, dose response (AID 624134); assay type: functional
# [19] = Luminescence Cell-Based Dose Retest to Confirm Inhibitors of Cancer Stem Cells. [Related pubchem assays (depositor defined):AID2717, AID2721]; assay type: functional; details: Homo sapiens
# Troponin, cardiac muscle = Troponin, cardiac muscle (Homo sapiens, UniProt P19429+P45379+P63316); test: Fluorescence-based biochemical high throughput dose response assay for activators of the calcium sensitivity of cardiac Regulated Thin Filaments (RTF). [Related pubchem assays (depositor defined):AID493008, AID493018, AID504382, AID504383]; assay type: protein-complex assay
# Hexokinase HKDC1 = target: T2, Hexokinase HKDC1 (Homo sapiens, UniProt Q2TB90); test: activation of HKDC1 glucose phosphorylation – biochemical, W721R variant, dose response (AID 504730); assay type: functional
# T2 sequence (Q2TB90 whole entry): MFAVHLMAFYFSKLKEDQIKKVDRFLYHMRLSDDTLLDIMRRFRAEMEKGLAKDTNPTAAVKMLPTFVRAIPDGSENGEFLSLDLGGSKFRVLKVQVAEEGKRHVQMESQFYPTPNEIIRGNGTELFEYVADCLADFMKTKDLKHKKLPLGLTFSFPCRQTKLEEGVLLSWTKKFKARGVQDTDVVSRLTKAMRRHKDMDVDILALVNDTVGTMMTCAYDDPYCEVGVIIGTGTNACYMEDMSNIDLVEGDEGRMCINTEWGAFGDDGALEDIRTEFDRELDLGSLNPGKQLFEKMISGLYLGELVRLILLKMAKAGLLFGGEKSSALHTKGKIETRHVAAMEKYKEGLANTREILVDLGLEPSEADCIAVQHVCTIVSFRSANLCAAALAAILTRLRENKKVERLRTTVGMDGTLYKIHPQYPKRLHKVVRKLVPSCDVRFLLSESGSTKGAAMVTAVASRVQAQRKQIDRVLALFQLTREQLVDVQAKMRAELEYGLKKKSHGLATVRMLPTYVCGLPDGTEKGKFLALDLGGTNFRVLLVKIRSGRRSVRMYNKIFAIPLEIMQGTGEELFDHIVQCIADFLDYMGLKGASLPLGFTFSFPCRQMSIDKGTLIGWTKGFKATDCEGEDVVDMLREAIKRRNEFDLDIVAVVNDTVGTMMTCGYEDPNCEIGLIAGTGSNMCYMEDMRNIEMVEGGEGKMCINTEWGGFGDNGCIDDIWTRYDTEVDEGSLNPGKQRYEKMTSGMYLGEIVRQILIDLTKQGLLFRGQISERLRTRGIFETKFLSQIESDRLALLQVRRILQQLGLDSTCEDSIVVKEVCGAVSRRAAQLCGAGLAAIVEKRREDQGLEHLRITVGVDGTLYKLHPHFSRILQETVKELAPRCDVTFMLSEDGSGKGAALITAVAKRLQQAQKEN
# Hexokinase-1 = Hexokinase-1 (Homo sapiens, UniProt P19367); test: HK1 enzyme activation by HKDC1 hits – biochemical, selectivity assay for HKDC1 activator project, dose response (AID 504762); assay type: functional
# [20] = target: T3, Rac GTPase-activating protein 1 (Homo sapiens, UniProt Q9H0H5); test: blockers of MgcRacGAP-driven Rac1 GTP hydrolysis – biochemical, ADP Hunter fluorescence, primary and confirmatory, confirmation (AID 624330); assay type: functional
# T3 sequence (Q9H0H5 whole entry): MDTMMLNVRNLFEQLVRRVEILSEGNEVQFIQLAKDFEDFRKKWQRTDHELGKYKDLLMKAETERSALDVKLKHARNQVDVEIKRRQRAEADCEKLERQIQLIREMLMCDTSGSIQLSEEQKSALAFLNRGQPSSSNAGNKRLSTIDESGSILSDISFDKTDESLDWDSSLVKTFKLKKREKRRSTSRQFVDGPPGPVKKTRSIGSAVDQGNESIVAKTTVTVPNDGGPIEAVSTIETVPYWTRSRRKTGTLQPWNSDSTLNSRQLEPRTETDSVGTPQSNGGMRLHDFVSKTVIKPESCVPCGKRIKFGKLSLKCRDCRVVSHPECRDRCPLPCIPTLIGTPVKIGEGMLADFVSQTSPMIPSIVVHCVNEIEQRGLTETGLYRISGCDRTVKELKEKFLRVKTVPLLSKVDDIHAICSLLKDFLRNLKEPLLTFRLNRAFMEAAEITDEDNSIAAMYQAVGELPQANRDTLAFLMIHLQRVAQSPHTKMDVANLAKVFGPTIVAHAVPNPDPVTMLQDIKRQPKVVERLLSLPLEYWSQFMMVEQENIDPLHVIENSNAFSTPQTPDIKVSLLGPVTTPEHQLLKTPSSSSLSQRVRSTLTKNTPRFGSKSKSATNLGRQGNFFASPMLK
# Phosphomannomutase 2 = Phosphomannomutase 2 (Homo sapiens, UniProt O15305); test: Counter screen SAR assay for PMM2 inhibitors via a fluorescence intensity assay. [Related pubchem assays (depositor defined):AID1545, AID1574]
# [21] = target: T4, Mannose-6-phosphate isomerase (Homo sapiens, UniProt P34949); test: phosphomannose isomerase inhibition – biochemical, fluorescence intensity, confirmation (AID 1535)
# T4 sequence (P34949 whole entry): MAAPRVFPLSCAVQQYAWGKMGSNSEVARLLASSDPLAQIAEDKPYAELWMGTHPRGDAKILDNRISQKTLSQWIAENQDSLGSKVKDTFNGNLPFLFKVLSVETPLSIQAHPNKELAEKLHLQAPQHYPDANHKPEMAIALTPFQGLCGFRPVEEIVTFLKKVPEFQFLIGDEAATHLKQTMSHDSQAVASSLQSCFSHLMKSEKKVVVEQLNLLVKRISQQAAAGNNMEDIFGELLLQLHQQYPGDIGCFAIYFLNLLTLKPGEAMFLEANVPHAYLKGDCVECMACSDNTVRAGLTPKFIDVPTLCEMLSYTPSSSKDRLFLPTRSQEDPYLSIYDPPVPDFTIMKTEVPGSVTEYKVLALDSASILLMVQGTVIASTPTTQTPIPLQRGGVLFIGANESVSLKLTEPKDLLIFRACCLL
# [22] = target: G-protein coupled receptor 55 (Homo sapiens, UniProt Q9Y2T6); test: inhibition of LPI-stimulated GPR55 beta-arrestin translocation – imaging, U2OS, beta-arrestin-GFP, LPI agonist, primary screen (AID 2013); assay type: functional;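 note: antagonist potency measured as reduced agonist-driven arrestin aggregation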
# [23] = target: FAD-linked sulfhydryl oxidase ALR (Homo sapiens, UniProt P55789); test: ALR-catalysed DTT oxidation blockers – biochemical, H2O2 detection, luminescence, cherry-pick, dose response (AID 493248)
# [24] = target: T5, Polyadenylate-binding protein 1 (Homo sapiens, UniProt P11940); test: MLLE domain peptide-binding blockers, IC50 – biochemical, fluorescence polarization, FITC-PAM2 peptide, dose response (AID 602259); assay type: functional; details: read-out: IC50_Mean
# [25] = target: T5, Polyadenylate-binding protein 1; test: MLLE binding blockers, Cy5 peptide tracer – biochemical, fluorescence polarization, Cy5-PAM2 peptide, secondary, miRNA deadenylation inhibitor project, dose response (AID 602260); assay type: functional; details: read-out: IC50_Mean
# Large T antigen = Large T antigen (Simian virus 40, UniProt P03070); assay type: functional, Betapolyomavirus macacae;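 note: Confirmatory-stage PubChem screen for compounds that inhibit SV40 T antigen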
# HEK293 = test: EBV LMP1 TES2 canonical NF-kB signalling blockers – cell-based, HEK293, luciferase, cherry-pick, dose response (AID 588343); assay type: functional; details: Homo sapiens
# H9c2 = test: cells; assay type: functional, cell-based; details: Rattus norvegicus, H9c2, Myocardium;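 note: confirmatory concentration-response retest of ultra-high-throughput screening hits for modulation of myocardial damage; cell death induced by hydrogen peroxide oxidative stress; compound pretreatment for 60 min then peroxide exposure for 2 h; potency is for protecting the cells against peroxide damage rather than for killing them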
# T1 sequence (P98170 whole entry): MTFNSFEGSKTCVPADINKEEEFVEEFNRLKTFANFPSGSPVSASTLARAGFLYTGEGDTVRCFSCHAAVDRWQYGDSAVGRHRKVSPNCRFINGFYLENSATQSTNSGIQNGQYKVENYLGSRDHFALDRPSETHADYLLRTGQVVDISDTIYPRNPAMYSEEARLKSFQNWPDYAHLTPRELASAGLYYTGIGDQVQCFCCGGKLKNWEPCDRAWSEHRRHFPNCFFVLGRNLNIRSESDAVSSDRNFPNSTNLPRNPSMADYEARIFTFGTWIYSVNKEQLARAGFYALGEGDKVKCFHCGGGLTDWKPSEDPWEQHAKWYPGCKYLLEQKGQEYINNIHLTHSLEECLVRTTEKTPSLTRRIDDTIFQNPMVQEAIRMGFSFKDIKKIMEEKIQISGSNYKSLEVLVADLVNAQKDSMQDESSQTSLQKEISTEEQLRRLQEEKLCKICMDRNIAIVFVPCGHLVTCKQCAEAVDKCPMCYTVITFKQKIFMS
# T5 sequence (P11940 whole entry, the tested form may be a part): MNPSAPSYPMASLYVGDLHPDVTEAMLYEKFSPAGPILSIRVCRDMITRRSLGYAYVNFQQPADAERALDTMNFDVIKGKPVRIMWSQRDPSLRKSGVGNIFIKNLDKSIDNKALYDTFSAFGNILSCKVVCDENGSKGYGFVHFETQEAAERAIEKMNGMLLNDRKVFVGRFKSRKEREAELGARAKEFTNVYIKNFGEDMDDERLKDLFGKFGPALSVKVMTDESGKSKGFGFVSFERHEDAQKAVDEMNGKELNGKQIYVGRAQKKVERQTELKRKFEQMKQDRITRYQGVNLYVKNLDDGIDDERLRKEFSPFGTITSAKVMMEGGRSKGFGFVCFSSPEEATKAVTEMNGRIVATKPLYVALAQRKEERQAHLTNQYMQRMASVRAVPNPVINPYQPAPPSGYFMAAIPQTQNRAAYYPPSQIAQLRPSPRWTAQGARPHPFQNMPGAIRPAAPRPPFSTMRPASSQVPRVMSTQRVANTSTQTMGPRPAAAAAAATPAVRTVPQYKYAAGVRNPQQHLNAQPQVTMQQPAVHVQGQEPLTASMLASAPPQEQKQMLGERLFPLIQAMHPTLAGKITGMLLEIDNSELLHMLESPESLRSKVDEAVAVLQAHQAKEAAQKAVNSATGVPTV
# Chain of DNA dC->dU-editing enzyme APOBEC-3G (Q9HC16 whole entry): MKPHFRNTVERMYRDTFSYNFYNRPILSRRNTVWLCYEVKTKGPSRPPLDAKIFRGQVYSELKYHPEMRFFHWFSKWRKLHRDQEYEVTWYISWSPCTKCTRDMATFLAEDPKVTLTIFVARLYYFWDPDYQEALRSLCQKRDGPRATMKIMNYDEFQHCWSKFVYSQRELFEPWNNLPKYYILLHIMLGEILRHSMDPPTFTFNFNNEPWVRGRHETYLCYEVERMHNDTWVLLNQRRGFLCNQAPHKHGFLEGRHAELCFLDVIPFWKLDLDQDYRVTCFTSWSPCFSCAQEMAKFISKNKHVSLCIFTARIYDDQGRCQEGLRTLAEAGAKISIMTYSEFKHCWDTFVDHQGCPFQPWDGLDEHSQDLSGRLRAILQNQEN
# Chain of G-protein coupled receptor 55 (Q9Y2T6 whole entry): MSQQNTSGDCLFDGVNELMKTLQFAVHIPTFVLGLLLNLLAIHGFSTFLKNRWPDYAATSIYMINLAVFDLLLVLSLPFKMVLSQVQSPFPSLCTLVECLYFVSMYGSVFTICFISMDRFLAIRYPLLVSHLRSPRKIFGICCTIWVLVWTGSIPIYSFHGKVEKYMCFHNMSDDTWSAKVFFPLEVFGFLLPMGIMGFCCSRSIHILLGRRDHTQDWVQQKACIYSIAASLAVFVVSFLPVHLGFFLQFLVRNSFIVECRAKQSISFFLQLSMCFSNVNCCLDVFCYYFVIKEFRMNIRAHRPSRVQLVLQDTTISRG
# Chain of Beta-galactosidase (Q8VNN2 whole entry): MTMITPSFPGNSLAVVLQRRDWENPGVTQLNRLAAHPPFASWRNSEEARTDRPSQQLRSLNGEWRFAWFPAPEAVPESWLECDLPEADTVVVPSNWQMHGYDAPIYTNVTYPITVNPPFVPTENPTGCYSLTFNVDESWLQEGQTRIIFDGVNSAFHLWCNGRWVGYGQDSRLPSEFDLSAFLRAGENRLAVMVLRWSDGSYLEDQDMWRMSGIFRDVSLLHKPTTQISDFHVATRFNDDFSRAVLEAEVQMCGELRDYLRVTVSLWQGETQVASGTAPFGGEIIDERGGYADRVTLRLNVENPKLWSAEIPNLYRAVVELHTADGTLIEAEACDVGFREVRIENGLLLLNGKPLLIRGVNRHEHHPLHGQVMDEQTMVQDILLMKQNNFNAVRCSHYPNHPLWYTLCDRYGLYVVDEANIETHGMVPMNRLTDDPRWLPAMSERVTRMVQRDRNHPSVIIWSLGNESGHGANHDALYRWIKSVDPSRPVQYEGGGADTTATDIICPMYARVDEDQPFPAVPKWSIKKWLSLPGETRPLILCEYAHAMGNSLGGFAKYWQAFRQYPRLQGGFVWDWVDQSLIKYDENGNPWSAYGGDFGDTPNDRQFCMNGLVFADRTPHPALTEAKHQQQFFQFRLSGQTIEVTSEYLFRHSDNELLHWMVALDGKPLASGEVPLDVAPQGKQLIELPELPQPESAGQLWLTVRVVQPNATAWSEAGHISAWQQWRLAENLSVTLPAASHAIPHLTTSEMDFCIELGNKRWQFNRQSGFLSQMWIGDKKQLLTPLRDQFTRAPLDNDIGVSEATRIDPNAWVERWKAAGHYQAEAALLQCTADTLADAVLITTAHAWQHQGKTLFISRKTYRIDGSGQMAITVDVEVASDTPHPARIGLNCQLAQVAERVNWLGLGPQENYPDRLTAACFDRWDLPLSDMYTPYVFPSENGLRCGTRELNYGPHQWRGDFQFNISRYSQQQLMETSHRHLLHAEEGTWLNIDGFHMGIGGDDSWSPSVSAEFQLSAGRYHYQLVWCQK
# Chain of FAD-linked sulfhydryl oxidase ALR (P55789 whole entry, the tested form may be a part): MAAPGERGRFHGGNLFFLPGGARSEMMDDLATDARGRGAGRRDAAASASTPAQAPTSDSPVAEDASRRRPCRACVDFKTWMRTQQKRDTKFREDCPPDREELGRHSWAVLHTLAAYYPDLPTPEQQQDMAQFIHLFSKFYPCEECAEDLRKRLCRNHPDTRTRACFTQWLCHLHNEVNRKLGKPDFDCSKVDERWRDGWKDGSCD
# Chain of Phosphomannomutase 2 (O15305 whole entry): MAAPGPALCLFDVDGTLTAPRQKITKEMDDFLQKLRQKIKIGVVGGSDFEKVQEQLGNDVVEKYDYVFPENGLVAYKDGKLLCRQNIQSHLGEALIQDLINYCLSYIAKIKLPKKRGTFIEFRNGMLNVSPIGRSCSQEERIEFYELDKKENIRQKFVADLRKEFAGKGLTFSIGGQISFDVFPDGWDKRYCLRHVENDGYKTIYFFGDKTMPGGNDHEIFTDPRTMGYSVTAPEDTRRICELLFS
# Chain of Glucose-6-phosphate 1-dehydrogenase (P11413 whole entry): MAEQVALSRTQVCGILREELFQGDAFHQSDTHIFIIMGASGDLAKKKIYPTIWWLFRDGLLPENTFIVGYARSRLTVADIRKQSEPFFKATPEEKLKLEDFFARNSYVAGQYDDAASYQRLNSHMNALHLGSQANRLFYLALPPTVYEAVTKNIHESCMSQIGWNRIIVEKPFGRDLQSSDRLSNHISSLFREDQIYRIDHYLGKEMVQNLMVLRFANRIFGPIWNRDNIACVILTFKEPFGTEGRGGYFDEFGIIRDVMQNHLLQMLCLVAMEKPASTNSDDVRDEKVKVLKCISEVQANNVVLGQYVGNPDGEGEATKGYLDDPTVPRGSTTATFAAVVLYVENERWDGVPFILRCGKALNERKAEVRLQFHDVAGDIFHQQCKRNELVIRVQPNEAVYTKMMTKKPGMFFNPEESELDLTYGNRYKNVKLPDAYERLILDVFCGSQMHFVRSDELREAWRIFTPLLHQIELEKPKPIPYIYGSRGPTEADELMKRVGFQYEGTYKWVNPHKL
# Chain of CAAX prenyl protease 1 (P47154 whole entry): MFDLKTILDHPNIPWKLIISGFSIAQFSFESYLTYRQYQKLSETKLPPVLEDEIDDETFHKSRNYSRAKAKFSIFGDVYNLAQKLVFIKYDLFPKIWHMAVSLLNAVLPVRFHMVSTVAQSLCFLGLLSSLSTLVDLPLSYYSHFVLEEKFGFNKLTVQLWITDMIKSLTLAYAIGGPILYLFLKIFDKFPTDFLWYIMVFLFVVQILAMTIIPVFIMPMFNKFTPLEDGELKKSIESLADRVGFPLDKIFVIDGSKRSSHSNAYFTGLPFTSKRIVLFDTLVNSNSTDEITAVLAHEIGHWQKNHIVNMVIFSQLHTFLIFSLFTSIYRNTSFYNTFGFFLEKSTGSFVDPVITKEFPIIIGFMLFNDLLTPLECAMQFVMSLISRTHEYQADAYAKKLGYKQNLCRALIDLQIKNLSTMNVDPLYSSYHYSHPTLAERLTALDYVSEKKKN
# Chain of Large T antigen (P03070 whole entry): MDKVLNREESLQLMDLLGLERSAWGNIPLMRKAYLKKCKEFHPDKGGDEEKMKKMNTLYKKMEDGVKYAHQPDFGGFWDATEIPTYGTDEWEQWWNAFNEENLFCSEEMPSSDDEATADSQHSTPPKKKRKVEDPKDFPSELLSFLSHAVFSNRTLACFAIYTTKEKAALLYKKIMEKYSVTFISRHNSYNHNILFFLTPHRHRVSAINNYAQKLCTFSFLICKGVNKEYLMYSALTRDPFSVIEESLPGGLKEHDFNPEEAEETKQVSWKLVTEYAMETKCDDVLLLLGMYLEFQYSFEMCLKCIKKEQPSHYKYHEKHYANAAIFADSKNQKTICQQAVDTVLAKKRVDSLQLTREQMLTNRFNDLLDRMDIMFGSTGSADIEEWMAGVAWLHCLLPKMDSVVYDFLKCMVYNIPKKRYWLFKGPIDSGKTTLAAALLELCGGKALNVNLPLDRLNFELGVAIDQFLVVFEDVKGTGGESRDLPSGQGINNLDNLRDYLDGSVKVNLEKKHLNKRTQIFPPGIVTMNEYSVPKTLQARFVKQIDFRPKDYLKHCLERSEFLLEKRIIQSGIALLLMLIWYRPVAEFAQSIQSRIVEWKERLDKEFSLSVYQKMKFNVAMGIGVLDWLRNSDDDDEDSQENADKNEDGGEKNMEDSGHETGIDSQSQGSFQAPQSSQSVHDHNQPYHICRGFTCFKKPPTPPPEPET
smiles,measurement,setting,value
CC1=C(C(=O)N2CCOCC2)C(c2ccccc2F)C2=C(O)CC(C)(C)CC2=N1 (stereo not drawn),AC50,CAAX prenyl protease 1,14.6 µM (active)
Cc1ccnc(NS(=O)(=O)c2ccc(NC(=O)c3ccc([N+](=O)[O-])s3)cc2)n1,CC50,[1],> 20 µM (active)
same,EC50,[2],> 60 µM (not active)
same,CC50,[3],> 20 µM (active)
same,EC50,[4],0.967 µM (active)
same,IC50,cells,6.24 µM (active)
same,CC50,[5],10.2 µM (active)
O=C(/C=C/c1ccco1)Nc1ccc2nn(-c3ccccc3)nc2c1,IC50,[6],5.43 µM (active)
same,EC50,[7],4.53 µM (active)
same,IC50,[8],> 100 µM (not active)
same,IC50,[9],> 100 µM (inactive)
same,EC50,[10],4.11 µM (active)
O=C(O)CCCNC(=O)c1cncc(Br)c1,IC50,[8],> 100 µM (not active)
same,IC50,[9],> 100 µM (inactive)
Cc1ccc(NC(=O)c2ccc(Cl)c(N3C(=O)C=CC3=O)c2)cc1,AC50,[11],3.64 µM (active)
same,IC50,Beta-galactosidase,> 66.6 µM (inactive)
same,IC50,[12],37.7 µM (active)
same,AC50,[13],1.93 µM (active)
same,AC50,[14],9.79 µM (active)
same,IC50,[15],48.8 µM (inactive)
same,AC50,[16],1.6 µM (active)
same,AC50,[17],5.17 µM (active)
same,AC50,[18],55.1 µM (active)
same,AC50,[19],4.21 µM (active)
COc1ccc(C)cc1NC(=O)C12CCC(C)(C(=O)O1)C2(C)C (stereo not drawn),EC50,"Troponin, cardiac muscle",> 71.5 µM (inactive)
Cc1cc(C2=NN=C(Nc3ccc(S(=O)(=O)N4CCOCC4)cc3)SC2)c(C)n1CC1CCCO1 (stereo not drawn),EC50,Hexokinase HKDC1,31.2 µM (inactive)
same,EC50,Hexokinase-1,29.5 µM (inactive)
Sc1nnc(Nc2ccccc2Cl)s1,IC50,[20],54.8 µM (active)
same,IC50,Phosphomannomutase 2,> 100 µM (inactive)
same,IC50,[12],> 100 µM (inactive)
same,IC50,[21],> 50 µM (inactive)
CCn1c(Cn2nnc(-c3ccccc3)n2)nnc1SCc1ccc(Cl)c(Cl)c1,IC50,[22],2.8 µM (active)
Nc1nc2ccc(S(=O)(=O)N3CCCCC3)cc2s1,IC50,[22],13.9 µM (inactive)
same,AC50,[23],3.3 µM (active)
same,IC50,[24],> 66 µM (inactive)
same,IC50,[25],> 66 µM (inactive)
same,IC50,Large T antigen,8.51 µM (active)
COc1cccc(-c2nnc(NC(=O)c3ccc(S(=O)(=O)N(CC(C)C)CC(C)C)cc3)o2)c1,CC50,[1],5.3 µM (active)
same,AC50,HEK293,8.51 µM (active)
same,CC50,[3],2.37 µM (active)
same,IC50,H9c2,> 79 µM (inactive)
same,IC50,cells,16.3 µM (active)
same,CC50,[5],0.996 µM (active)
